Patent publication US20090232838A1, “Ligands of melanocortin receptors” (priority 2005, published 2009)

Experiments:
Assay type in all cases: cell-based
hMC5-R = target: T1, hMC5-R (Homo sapiens, UniProt P33032); assay: cyclic AMP bioassay, hMC5-R
T1 construct: expressed in transfected cells; host or cells: CHO-K1
Description: Intracellular cyclic AMP (cAMP) levels were determined by an electrochemiluminescence (ECL) assay (Meso Scale Discovery®, Gaithersburg, Md.; referred to hereinafter as MSD). […] Transgenic CHO-K1 cells stably expressing hMC receptor subtypes 1, 3, 4 or 5 were dispensed at a density of approximately 7,000 cells/well in 384-well Multi-Arrays plates (MSD) containing integrated carbon electrodes and coated with anti-CAMP antibody. Increasing concentrations of the test compounds were added and the cells were incubated for approximately 40 minutes at approximately 37° C. […] At the end of the second incubation period read buffer (Tris-buffered solution containing an ECL co-reactant and Triton X-100 at ph 7.8) was added and the cAMP levels in the cell lysates were immediately determined by ECL detection with a Sector Imager 6000 Reader® (MSD). Data were analyzed using a computer-assisted non-linear regression analysis (XL fit; IDBS) and reported as either an EC50 value or a Kb value.
The Kb value reflects the potency of an antagonist and is determined by Schild analysis. In brief, concentration-response curves of an agonist are carried out in the presence of increasing concentrations of an antagonist. […] It is calculated by extrapolating the line on a Schild plot to zero on the y-axis.

hMC4-R = target: T2, hMC4-R (Homo sapiens, UniProt P32245); assay: cyclic AMP bioassay, hMC4-R
T2 construct: expressed in transfected cells; host or cells: CHO-K1

hMC3-R = target: T3, hMC3-R (Homo sapiens, UniProt P41968); assay: cyclic AMP bioassay, hMC3-R
T3 construct: expressed in transfected cells; host or cells: CHO-K1

hMC1-R = target: T4, hMC1-R (Homo sapiens, UniProt Q01726); assay: cyclic AMP bioassay, hMC1-R
T4 construct: expressed in transfected cells; host or cells: CHO-K1
T4 sequence (Q01726 whole entry): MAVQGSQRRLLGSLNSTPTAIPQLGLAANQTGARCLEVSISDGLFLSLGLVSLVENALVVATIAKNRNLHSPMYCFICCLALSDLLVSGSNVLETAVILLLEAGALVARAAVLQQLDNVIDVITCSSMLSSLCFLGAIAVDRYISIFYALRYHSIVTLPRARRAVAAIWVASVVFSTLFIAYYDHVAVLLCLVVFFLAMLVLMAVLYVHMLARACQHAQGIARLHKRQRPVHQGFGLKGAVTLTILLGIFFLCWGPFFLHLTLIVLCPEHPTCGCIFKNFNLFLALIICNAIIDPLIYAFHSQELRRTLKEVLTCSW

T3 sequence (P41968 whole entry): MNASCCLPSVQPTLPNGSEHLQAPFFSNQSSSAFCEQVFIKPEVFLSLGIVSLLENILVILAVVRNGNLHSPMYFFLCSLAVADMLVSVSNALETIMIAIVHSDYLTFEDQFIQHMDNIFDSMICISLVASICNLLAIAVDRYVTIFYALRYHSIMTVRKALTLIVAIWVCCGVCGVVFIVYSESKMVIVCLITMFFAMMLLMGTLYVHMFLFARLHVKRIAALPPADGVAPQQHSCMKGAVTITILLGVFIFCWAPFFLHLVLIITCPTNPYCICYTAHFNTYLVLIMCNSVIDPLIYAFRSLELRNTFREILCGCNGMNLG
T2 sequence (P32245 whole entry): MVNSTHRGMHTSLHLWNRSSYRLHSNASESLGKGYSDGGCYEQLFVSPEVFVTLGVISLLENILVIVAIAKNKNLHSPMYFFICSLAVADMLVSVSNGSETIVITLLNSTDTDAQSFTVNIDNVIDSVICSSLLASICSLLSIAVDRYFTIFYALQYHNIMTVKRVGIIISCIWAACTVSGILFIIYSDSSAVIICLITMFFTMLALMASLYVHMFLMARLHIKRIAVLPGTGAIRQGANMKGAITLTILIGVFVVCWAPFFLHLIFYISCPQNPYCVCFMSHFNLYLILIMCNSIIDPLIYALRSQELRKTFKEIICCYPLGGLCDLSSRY
T1 sequence (P33032 whole entry): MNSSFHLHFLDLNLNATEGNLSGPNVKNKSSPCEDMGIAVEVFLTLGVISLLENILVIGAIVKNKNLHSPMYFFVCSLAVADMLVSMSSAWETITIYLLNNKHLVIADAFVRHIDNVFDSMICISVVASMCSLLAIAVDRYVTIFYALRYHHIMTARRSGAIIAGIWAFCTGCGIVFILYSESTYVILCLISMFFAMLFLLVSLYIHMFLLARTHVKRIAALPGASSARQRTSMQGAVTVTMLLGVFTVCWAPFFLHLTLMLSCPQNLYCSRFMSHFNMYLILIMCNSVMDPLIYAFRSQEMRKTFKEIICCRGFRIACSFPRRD

SMILES	EC50 (hMC5-R) [nM]	EC50 (hMC4-R) [nM]	EC50 (hMC3-R) [nM]	EC50 (hMC1-R) [nM]	Kb (hMC4-R) [nM]	Kb (hMC3-R) [nM]
CCCC[C@H](NC(C)=O)C(=O)N[C@H]1CSSC[C@@H](C(=O)NCCOCCOCC(=O)NCCOCCOCC(=O)N[C@@H](Cc2ccc(O)cc2)C(=O)NCC(=O)N[C@@H](CCCNC(=N)N)C(=O)N[C@@H](CCCCN)C(=O)N[C@@H](CCCCN)C(=O)N[C@@H](CCCNC(=N)N)C(=O)N[C@@H](CCCNC(=N)N)C(=O)N[C@@H](CCC(N)=O)C(=O)N[C@@H](CCCNC(=N)N)C(=O)N[C@@H](CCCNC(=N)N)C(=O)N[C@@H](CCCNC(=N)N)C(N)=O)NC(=O)[C@H](Cc2c[nH]c3ccccc23)NC(=O)[C@H](CCCNC(=N)N)NC(=O)[C@@H](Cc2ccccc2)NC(=O)[C@H](Cc2c[nH]cn2)NC(=O)[C@@H](C)NC1=O	147	0.634	4.56	4.7	–	–
CCCC[C@H](NC(C)=O)C(=O)N[C@H]1CSSC[C@@H](C(=O)NCCC(=O)N[C@@H](Cc2ccc(O)cc2)C(=O)NCC(=O)N[C@@H](CCCNC(=N)N)C(=O)N[C@@H](CCCCN)C(=O)N[C@@H](CCCCN)C(=O)N[C@@H](CCCNC(=N)N)C(=O)N[C@@H](CCC(N)=O)C(=O)N[C@@H](CCCNC(=N)N)C(=O)N[C@@H](CCCNC(=N)N)C(=O)N[C@@H](CCCNC(=N)N)C(=O)N[C@@H](CCCNC(=N)N)C(N)=O)NC(=O)[C@H](Cc2c[nH]c3ccccc23)NC(=O)[C@H](CCCNC(=N)N)NC(=O)[C@@H](Cc2ccccc2)NC(=O)[C@H](Cc2c[nH]cn2)NC(=O)[C@@H](C)NC1=O	2890	1.02	7.73	5.9	–	–
CCCC[C@H](NC(C)=O)C(=O)N[C@H]1CSSC[C@@H](C(=O)NCCC(=O)NCC(=O)N[C@@H](CCCNC(=N)N)C(=O)N[C@@H](CCCNC(=N)N)C(=O)N[C@@H](CCCNC(=N)N)C(=O)N[C@@H](CCCNC(=N)N)C(=O)N[C@@H](CCCNC(=N)N)C(=O)N[C@@H](CCC(N)=O)C(=O)N[C@@H](CCCNC(=N)N)C(=O)N[C@@H](CCCNC(=N)N)C(=O)N[C@@H](CCCNC(=N)N)C(N)=O)NC(=O)[C@H](Cc2c[nH]c3ccccc23)NC(=O)[C@H](CCCNC(=N)N)NC(=O)[C@@H](Cc2ccccc2)NC(=O)[C@H](Cc2c[nH]cn2)NC(=O)[C@@H](C)NC1=O	2010	0.964	7.32	0.481	–	–
CCCC[C@H](NC(C)=O)C(=O)N[C@H]1CSSC[C@@H](C(=O)NCCC(=O)N[C@@H](CCCNC(=N)N)C(=O)N[C@@H](CCCNC(=N)N)C(=O)N[C@@H](CCCNC(=N)N)C(=O)N[C@@H](CCCNC(=N)N)C(=O)N[C@@H](CCCNC(=N)N)C(=O)N[C@@H](CCC(N)=O)C(=O)N[C@@H](CCCNC(=N)N)C(=O)N[C@@H](CCCNC(=N)N)C(=O)N[C@@H](CCCNC(=N)N)C(N)=O)NC(=O)[C@H](Cc2c[nH]c3ccccc23)NC(=O)[C@H](CCCNC(=N)N)NC(=O)[C@@H](Cc2ccccc2)NC(=O)[C@H](Cc2c[nH]cn2)NC(=O)[C@@H](C)NC1=O	1570	1.25	9.37	7.15	–	–
CC(=O)N[C@H]1CSSC[C@@H](C(=O)N2CCC[C@H]2C(=O)N2CCC[C@H]2C(=O)N[C@@H](CCCCN)C(=O)N[C@@H](CC(=O)O)C(=O)NCCC(=O)N[C@@H](CCCNC(=N)N)C(=O)N[C@@H](CCCCN)C(=O)N[C@@H](CCCNC(=N)N)C(=O)N[C@@H](CCCNC(=N)N)C(=O)N[C@@H](CCCNC(=N)N)C(=O)N[C@@H](CCC(N)=O)C(=O)N[C@@H](CCCNC(=N)N)C(=O)N[C@@H](CCCNC(=N)N)C(=O)N[C@@H](CCCNC(=N)N)C(N)=O)NC(=O)[C@H](C)NC(=O)[C@H](Cc2cccc3ccccc23)NC(=O)[C@H](CCCNC(=N)N)NC(=O)[C@@H](Cc2ccc3ccccc3c2)NC(=O)[C@H](Cc2c[nH]cn2)NC(=O)[C@H](CCC(=O)O)NC1=O	1720	–	–	33.1	15.3	65.1
CC(=O)N[C@H]1CSSC[C@@H](C(=O)N2CCC[C@H]2C(=O)N2CCC[C@H]2C(=O)N[C@@H](CCCCN)C(=O)N[C@@H](CC(=O)O)C(=O)NCCC(=O)NCC(=O)N[C@@H](CCCNC(=N)N)C(=O)N[C@@H](CCCNC(=N)N)C(=O)N[C@@H](CCCCN)C(=O)N[C@@H](CCCNC(=N)N)C(=O)N[C@@H](CCCNC(=N)N)C(=O)N[C@@H](CCC(N)=O)C(=O)N[C@@H](CCCNC(=N)N)C(=O)N[C@@H](CCCNC(=N)N)C(=O)N[C@@H](CCCNC(=N)N)C(N)=O)NC(=O)[C@H](C)NC(=O)[C@H](Cc2cccc3ccccc23)NC(=O)[C@H](CCCNC(=N)N)NC(=O)[C@@H](Cc2ccc3ccccc3c2)NC(=O)[C@H](Cc2c[nH]cn2)NC(=O)[C@H](CCC(=O)O)NC1=O	351	–	–	26.6	9.34	101
CC(=O)N[C@H]1CSSC[C@@H](C(=O)N2CCC[C@H]2C(=O)N2CCC[C@H]2C(=O)N[C@@H](CCCCN)C(=O)N[C@@H](CC(=O)O)C(=O)NCCC(=O)N[C@@H](CCCNC(=N)N)C(=O)N[C@@H](CCCNC(=N)N)C(=O)N[C@@H](CCCNC(=N)N)C(=O)N[C@@H](CCCNC(=N)N)C(=O)N[C@@H](CCCNC(=N)N)C(=O)N[C@@H](CCCNC(=N)N)C(=O)N[C@@H](CCC(N)=O)C(=O)N[C@@H](CCCNC(=N)N)C(=O)N[C@@H](CCCNC(=N)N)C(=O)N[C@@H](CCCNC(=N)N)C(N)=O)NC(=O)[C@H](C)NC(=O)[C@H](Cc2cccc3ccccc23)NC(=O)[C@H](CCCNC(=N)N)NC(=O)[C@@H](Cc2ccc3ccccc3c2)NC(=O)[C@H](Cc2c[nH]cn2)NC(=O)[C@H](CCC(=O)O)NC1=O	> 10000	–	–	93	15.9	71
CC(=O)N[C@H]1CSSC[C@@H](C(=O)N2CCC[C@H]2C(=O)N2CCC[C@H]2C(=O)N[C@@H](CCCCN)C(=O)N[C@@H](CC(=O)O)C(=O)NCCC(=O)N[C@@H](CCCNC(=N)N)C(=O)N[C@@H](CCCNC(=N)N)C(=O)N[C@@H](CCCCN)C(=O)N[C@@H](CCCNC(=N)N)C(=O)N[C@@H](CCCNC(=N)N)C(=O)N[C@@H](CCC(N)=O)C(=O)N[C@@H](CCCNC(=N)N)C(=O)N[C@@H](CCCNC(=N)N)C(=O)N[C@@H](CCCNC(=N)N)C(N)=O)NC(=O)[C@H](C)NC(=O)[C@H](Cc2cccc3ccccc23)NC(=O)[C@H](CCCNC(=N)N)NC(=O)[C@@H](Cc2ccc3ccccc3c2)NC(=O)[C@H](Cc2c[nH]cn2)NC(=O)[C@H](CCC(=O)O)NC1=O	> 10000	–	–	70.4	18.6	286
CC(=O)N[C@H]1CSSC[C@@H](C(=O)N2CCC[C@H]2C(=O)N2CCC[C@H]2C(=O)N[C@@H](CCCCN)C(=O)N[C@@H](CC(=O)O)C(=O)NCCC(=O)NCC(=O)N[C@@H](CCCNC(=N)N)C(=O)N[C@@H](CCCCN)C(=O)N[C@@H](CCCNC(=N)N)C(=O)N[C@@H](CCCNC(=N)N)C(=O)N[C@@H](CCCNC(=N)N)C(=O)N[C@@H](CCC(N)=O)C(=O)N[C@@H](CCCNC(=N)N)C(=O)N[C@@H](CCCNC(=N)N)C(=O)N[C@@H](CCCNC(=N)N)C(N)=O)NC(=O)[C@H](C)NC(=O)[C@H](Cc2cccc3ccccc23)NC(=O)[C@H](CCCNC(=N)N)NC(=O)[C@@H](Cc2ccc3ccccc3c2)NC(=O)[C@H](Cc2c[nH]cn2)NC(=O)[C@H](CCC(=O)O)NC1=O	149	–	–	45.5	6.35	181
CC(=O)N[C@H]1CSSC[C@@H](C(=O)N2CCC[C@H]2C(=O)N2CCC[C@H]2C(=O)N[C@@H](CCCNC(=N)N)C(=O)N[C@@H](CC(=O)O)C(=O)NCCC(=O)N[C@@H](CCCNC(=N)N)C(=O)N[C@@H](CCCNC(=N)N)C(=O)N[C@@H](CCCNC(=N)N)C(=O)N[C@@H](CCCNC(=N)N)C(=O)N[C@@H](CCCNC(=N)N)C(=O)N[C@@H](CCC(N)=O)C(=O)N[C@@H](CCCNC(=N)N)C(=O)N[C@@H](CCCNC(=N)N)C(=O)N[C@@H](CCCNC(=N)N)C(N)=O)NC(=O)[C@H](C)NC(=O)[C@H](Cc2ccc3ccccc3c2)NC(=O)[C@H](CCCNC(=N)N)NC(=O)[C@@H](Cc2ccc3ccccc3c2)NC(=O)[C@H](Cc2c[nH]cn2)NC(=O)[C@H](CCC(=O)O)NC1=O	501	–	–	39.7	6.66	30.9
CC(=O)N[C@H]1CSSC[C@@H](C(=O)N2CCC[C@H]2C(=O)N2CCC[C@H]2C(=O)N[C@@H](CCCCN)C(=O)N[C@@H](CC(=O)O)C(=O)NCCC(=O)N[C@@H](CCCNC(=N)N)C(=O)N[C@@H](CCCNC(=N)N)C(=O)N[C@@H](CCCNC(=N)N)C(=O)N[C@@H](CCCNC(=N)N)C(=O)N[C@@H](CCCNC(=N)N)C(=O)N[C@@H](CCC(N)=O)C(=O)N[C@@H](CCCNC(=N)N)C(=O)N[C@@H](CCCNC(=N)N)C(=O)N[C@@H](CCCNC(=N)N)C(N)=O)NC(=O)[C@H](C)NC(=O)[C@H](Cc2ccc3ccccc3c2)NC(=O)[C@H](CCCNC(=N)N)NC(=O)[C@@H](Cc2ccc3ccccc3c2)NC(=O)[C@H](Cc2c[nH]cn2)NC(=O)[C@H](CCC(=O)O)NC1=O	199	–	–	35.2	12.6	22.9
CC(=O)N[C@H]1CSSC[C@@H](C(=O)N2CCC[C@H]2C(=O)N2CCC[C@H]2C(=O)N[C@@H](CCCCN)C(=O)N[C@@H](CC(=O)O)C(=O)NCCC(=O)N[C@@H](CCCNC(=N)N)C(=O)N[C@@H](CCCNC(=N)N)C(=O)N[C@@H](CCCCN)C(=O)N[C@@H](CCCNC(=N)N)C(=O)N[C@@H](CCCNC(=N)N)C(=O)N[C@@H](CCC(N)=O)C(=O)N[C@@H](CCCNC(=N)N)C(=O)N[C@@H](CCCNC(=N)N)C(=O)N[C@@H](CCCNC(=N)N)C(N)=O)NC(=O)[C@H](C)NC(=O)[C@H](Cc2ccc3ccccc3c2)NC(=O)[C@H](CCCNC(=N)N)NC(=O)[C@@H](Cc2ccc3ccccc3c2)NC(=O)[C@H](Cc2c[nH]cn2)NC(=O)[C@H](CCC(=O)O)NC1=O	514	–	–	88.2	17.4	10.6
